From patent US10201558B2, “Compositions of selenoorganic compounds and methods of use thereof” (Alltech, Inc., priority 2014, dated 2019) come the findings set out here.

Entries after “also recorded” stand apart in the source; their conditions may differ.

The subject of one data set is PGC-1α. Briefly: Western blot of PGC-1α protein in IMR-32 cells. To be noted: 150 ppb, 24 hours. Format: cell-based, human. As to the method:
(§1) IMR-32 cells were seeded on 6-well plates and then treated with control and various compounds for 6 hours and 24 hours, as described above. After treatments, cells were rinsed with ice-cold PBS and lysed in ice-cold RIPA buffer containing complete proteinase and phosphatase inhibitors (Thermo-Fisher Scientific, Waltham, Mass.) on ice for 30 min Cell lysates were collected using a cell scraper and transfer pipette and then centrifuged at 12000×g for 30 min at 4° C. to remove the DNA pellet and obtain the protein extract. Protein levels in the supernatant of these cell lysates were determined using the Pierce Micro-BCA protein assay kit (Thermo Scientific-Piece Biotechnology, Rockford, Ill.) according to the manufacturer's protocol […]
(§2) Positive signals on the membrane blots were detected using Amersham's enhanced chemiluminescence (ECL) Western Blotting Prime Detection reagents (GE healthcare Lifescience, Pittsburgh, Pa.). Images of these luminescence signals on the membrane blots were captured using the LI-COR Odyssey Fc Image system (Lincoln, Nebr.). […] Protein band densities in the Western blots were determined using the Li—COR Image studio software or NIH ImageJ software, and then normalized by ACTB protein level in each sample. […]
(In western blotting, separated proteins are transferred to a membrane and probed.)

The subject of another data set is UCP3. Kind of data set: QRT-PCR of UCP3 mRNA in IMR-32 cells. Format: cell-based, human. To be noted: 150 ppb, 6 hours. How it is done:
(§3) Human IMR-32 cells were seeded on gelatinized 6-well (6.5×10^5 cells/well) or 24-well (1.3×10^5 cells/well) plates. Cells were treated with control (0 ppb) or various compounds for 6 hours or 24 hours. Total RNA from these cells was isolated using Trizol (Invitrogen) according to the manufacturer's protocol, and then incubated with DNase I to remove any potential contaminated genomic DNA. Then RNA samples were subjected to real-time PCR analysis using the Applied-Bioscience's RT kit and predesigned Taqman probes (Invitrogen), as described previously (Lan et al EMBO J 2003). The mRNA levels of UCP1, UCP2, UCP3, SLC25A27 (UCP4), SLC25A14 (UCP5), PSEN1, Nicastrin, GSK3B, MAPK11-14, PPARG, APOE, RCAN1, RCAN1.1, G6PC, INSR, IGF1R and FOXO4 were measured. Three to six samples were analyzed in each treatment group. Data were normalized by Actin B (ACTB) or Glyceraldehyde Phosphate Dehydrogenase (GAPDH) mRNA levels in each sample and are presented as mean±SEM of 3-6 samples.

Data set [1] deals with primary fetal rat neurons. Briefly: Cell survival of primary cortical neurons (cell counts). To be noted: 150 ppb selenium compound(s), 24 hours; Control 100 ± 1.57; mixture: 30 ppb of the element from each compound. Type of data set: cell-based. How it is done: For primary neurons, dissociated primary cortical neuron cultures were established from E-18 rat embryos as previously described (Lovell et al., Free Radic. Biol. Med. 2000; Lovell et al., Neurobiol. Aging 2001). Studies were carried out on cells 7 days in culture by switching to Locke's solution consisting of 1 mL of 154 mM NaCl, 5.6 mM KCl, 2.3 mM CaCl2, 1.0 mM MgCl2, 3.6 mM NaHCO3, 10 mM glucose, 5 mM HEPES (pH 7.2) with 10 mg/L gentamicin sulfate. Primary neurons were treated for 24 hours in Locke's solution with the indicated selenium and sulfur compounds in Table 5. Cell counts were performed to measure cell survival/toxicity.
The effects of the selenium and sulfur compounds, identified as components of water extracts of selenium-enriched yeast, on neuronal cell survival was also tested. Primary neurons isolated from fetal rat brain were incubated with chemically synthesized individual selenium and sulfur compounds that were identified as components of water extracts of selenium-enriched yeast (Table 5). In this case, the elemental concentration of each compound identified in Table 5 was 150 ppb and, where mixtures were used, the 150 ppb treatment was made up of 30 ppb of the element from each of the five compounds in question.

The next data set deals with GSK3B. Kind of data set: Western blot of total GSK3B protein in IMR-32 cells. Format: cell-based, human. To be noted: 150 ppb, 24 hours. As to the method:
as §1, §2

The next data set deals with UCP5 (SLC25A14). Briefly: QRT-PCR of UCP5 (SLC25A14) mRNA in IMR-32 cells. Format: cell-based, human. Particulars: 150 ppb, 6 hours. As to the method: as §3

In the case of `C[Se]C[C@H]1O[C@@H](n2cnc3c(N)ncnc32)C(O)C1O` (stereo in doubt) [Compound C, 5′-deoxy-5′-methylselenoadenosine], the “PGC-1α protein levels (normalized by ACTB)” value in the data set on PGC-1α was “increase; also recorded: elevated”. Moreover, in the data set on UCP3, the “UCP3 mRNA expression” value is “significant decrease; also recorded: inhibited”. The “Viable Cell Number (Mean ± SEM, n = 6)” value in data set [1] was 101.1 ± 4.22. The “total GSK3B protein levels” value with GSK3B is recorded as “visibly decreased; also recorded: statistically significant decrease”. In addition, the “UCP5 (SLC25A14) mRNA expression” value in the data set on UCP5 (SLC25A14) was “trend towards decreased; also recorded: trend towards reduced”.
In the same order, the values of `C[Se]C[C@H](NC(=O)CC[C@H](N)C(=O)O)C(=O)O` [Compound E, γ-L-glutamyl-Se-methyl-L-selenocysteine] are “increase”, “did not have any effect”, 95.69 ± 10.53, “not observed; also recorded: no significant difference” and “did not have any effect”.
